Test results as given in patent US20160138113A1, “METHODS AND COMPOSITIONS FOR THE DIAGNOSIS, PROGNOSIS AND TREATMENT OF BRAIN METASTASIS” (MEMORIAL SLOAN-KETTERING CANCER CENTER, priority 2013, published 2016).

Test system: CTSS
Experiment: shRNA-mediated CTSS knockdown in Br-M cells (qPCR, western blot)
Assay type: cell-based, human
From the text: Five shRNA sequences targeting CTSS were obtained from the RNAi Codex and RNAi Consortium. shRNA sequences were inserted into the targeting hairpin sequence for the pRetroSuper vector. Correct insertion into the vector was verified by digestion and sequencing of the vector. Plasmids with the correct shRNA targeting sequence were transfected into H29 viral packaging cells. Viral particles were concentrated from the H29 cell supernatant, added to the target cells in the presence of polybrene and cells were selected with puromycin. One of the […] shRNAs (CTSS shRNA: GATAAAGTTTGCTAAGTAA—TTACTTAGCAAACTTTATC) was used for subsequent experiments to target CTSS with 90% KD efficiency. A non-targeting shRNA [CGCCATAAATATAACTTTA—TAAAGTTATATTTATGGCG] was used as control.
RNA was isolated with Trizol, DNase treated, and 0.2 μg of RNA was used for cDNA synthesis. Details about the Taqman assays can be found in Table 4. […]
Conditioned media (CM) from Br-M cell lines was generated by incubating confluent cell layers in serum-free DMEM media for 24 hours. […] Protein was quantified using the BCA assay (Pierce). […] Membranes were probed with antibodies as indicated in Table 5 and detected using the appropriate HRP-conjugated secondary antibodies using chemoluminescence detection (Millipore). Bands from western blots were quantified in the dynamic range using the Gel analysis module in ImageJ software.

CTSS shRNA: shRNA targeting CTSS: GATAAAGTTTGCTAAGTAA—TTACTTAGCAAACTTTATC, in pRetroSuper vector (loop; in pRetroSuper vector)
CTSS KD efficiency: 90%
